Assay results from patent US20140343048A1, “6-DIFLUOROMETHYL-5,6-DIHYDRO-2H-[1,4]OXAZIN-3-AMINE DERIVATIVES” (Janssen Pharmacetuica NV, priority 2011, published 2014).

Assays:
[1] = test system: Abeta total produced and secreted by human neuroblastoma SKNBE2 cells expressing hAPP695; assay: Cellular αLisa assay in SKNBE2 cells, Abeta total; type: cell-based; settings: incubated for 18 hours, read-out: Cellular αLisa assay in SKNBE2 cells Abetatotal pIC50 (converted)
Experimental: (§1) In two αLisa assays the levels of Abeta total and Abeta 1-42 produced and secreted into the medium of human neuroblastoma SKNBE2 cells are quantified. The assay is based on the human neuroblastoma SKNBE2 expressing the wild type Amyloid Precursor Protein (hAPP695). The compounds are diluted and added to these cells, incubated for 18 hours and then measurements of Abeta 1-42 and Abeta total are taken. Abeta total and Abeta 1-42 are measured by sandwich αLisa. αLisa is a sandwich assay using biotinylated antibody AbN/25 attached to streptavidin coated beads and antibody Ab4G8 or cAb42/26 conjugated acceptor beads for the detection of Abeta total and Abeta 1-42 respectively. In the presence of Abeta total or Abeta 1-42, the beads come into close proximity. The excitation of the donor beads provokes the release of singlet oxygen molecules that trigger a cascade of energy transfer in the acceptor beads, resulting in light emission. Light emission is measured after 1 hour incubation (excitation at […] and emission at 615 nm).
(§2) A best-fit curve is fitted by a minimum sum of squares method to the plot of % Controlmin versus compound concentration. From this an IC50 value (inhibitory concentration causing 50% inhibition of activity) can be obtained.

[2] = target: recombinant BACE1 protein (Homo sapiens, UniProt P56817); assay: Biochemical FRET based assay; settings: recombinant BACE1 1 μg/ml, 120 minutes, room temperature, pH 5.0; read-out: Biochemical FRET based assay pIC50 (converted)
Source text: This assay is a Fluorescence Resonance Energy Transfer Assay (FRET) based assay. The substrate for this assay is an APP derived 13 amino acids peptide that contains the ‘Swedish’ Lys-Met/Asn-Leu mutation of the amyloid precursor protein (APP) beta-secretase cleavage site. This substrate also contains two fluorophores: (7-methoxycoumarin-4-yl) acetic acid (Mca) is a fluorescent donor with excitation wavelength at 320 nm and emission at 405 nm and 2,4-Dinitrophenyl (Dnp) is a proprietary quencher acceptor. […] Upon cleavage by BACE1, the fluorophore Mca is separated from the quenching group Dnp, restoring the full fluorescence yield of the donor. The increase in fluorescence is linearly related to the rate of proteolysis.
Briefly in a 384-well format recombinant BACE1 protein in a final concentration of 1 μg/ml is incubated for 120 minutes at room temperature with 10 μm substrate in incubation buffer (40 mM Citrate buffer pH 5.0, 0.04% PEG, 4% DMSO) in the absence or presence of compound. Next the amount of proteolysis is directly measured by fluorescence measurement at T=0 and T=120 (excitation at 320 nm and emission at 405 nm). Results are expressed in RFU (Relative Fluorescence Units), as difference between T120 and T0.
From this an IC50 value (inhibitory concentration causing 50% inhibition of activity) can be obtained.

[3] = test system: Abeta 1-42 produced and secreted by human neuroblastoma SKNBE2 cells expressing hAPP695; assay: Cellular αLisa assay in SKNBE2 cells, Abeta 42; type: cell-based; settings: incubated for 18 hours, read-out: Cellular αLisa assay in SKNBE2 cells Abeta 42 pIC50 (converted)
Experimental: as §1, §2

[4] = test system: Aβ42 in the soluble fraction of brain homogenates; assay: In vivo efficacy: brain soluble Aβ42 lowering (ELISA); parameters: species or system mouse; settings: p.o., non-transgenic animals
Source text: (§3) To determine whether acute administration of an Aβ42 peptide lowering agent would reduce Aβ peptide levels in vivo, non-transgenic rodents, e.g. mice or rats were used. Animals treated with the Aβ peptide lowering agent were examined and compared to those untreated or treated with vehicle and brain levels of soluble Aβ42 and total Aβ were quantitated by standard techniques, for example, using ELISA. Treatment periods varied from hours (h) to days and were adjusted based on the results of the Aβ42 lowering once a time course of onset of effect could be established.
(§4) A typical protocol for measuring Aβ42 lowering in vivo is shown but it is only one of many variations that could be used to optimize the levels of detectable Aβ. For example, Aβ peptide lowering compounds were formulated in 20% hydroxypropyl β cyclodextrin. The Aβ peptide lowering agents were administered as a single oral dose (p.o.) or a single subcutaneous dose (s.c.) to overnight fasted animals. After a certain time, usually 2 or 4 h (as indicated in Table 7), the animals were sacrificed and A1342 levels were analysed.
(§5) Blood was collected by decapitation and exsanguinations in EDTA-treated collection tubes. […] The left hemisphere was stored at −18° C. for quantitative analysis of test compound levels. […]
(§6) Mouse brains from non-transgenic animals were resuspended in 8 volumes of 0.4% DEA (diethylamine)/50 mM NaCl containing protease inhibitors (Roche-11873580001 or 04693159001) per gram of tissue, e.g. for 0.158 g brain, add 1.264 ml of 0.4% DEA. […] Nine parts of supernatant were neutralized with 1 part 0.5 M Tris-HCl pH 6.8 and used to quantify Aβtotal and Aβ42.
(§7) To quantify the amount of Aβtotal and Aβ42 in the soluble fraction of the brain homogenates, Enzyme-Linked-Immunosorbent-Assays were used. […] Following this incubation and subsequent wash steps the ELISA for Aβ42 quantification was finished by addition of Quanta Blu fluorogenic peroxidase substrate according to the manufacturer's instructions (Pierce Corp., Rockford, Ill.). A reading was performed after 10 to 15 min (excitation 320 nm/emission 420 nm).

[5] = test system: Aβtotal in the soluble fraction of brain homogenates; assay: In vivo efficacy: brain soluble Aβtotal lowering (ELISA); parameters: species or system mouse; settings: p.o., non-transgenic animals
Source text: as §3, §4, §5, §6
as §7, with “nm). […]” for “nm).”

[6] = 30 mpk, 4 h after administration
[7] = 10 mpk, 2 h after administration

Sequence of recombinant BACE1 protein (P56817 46-501): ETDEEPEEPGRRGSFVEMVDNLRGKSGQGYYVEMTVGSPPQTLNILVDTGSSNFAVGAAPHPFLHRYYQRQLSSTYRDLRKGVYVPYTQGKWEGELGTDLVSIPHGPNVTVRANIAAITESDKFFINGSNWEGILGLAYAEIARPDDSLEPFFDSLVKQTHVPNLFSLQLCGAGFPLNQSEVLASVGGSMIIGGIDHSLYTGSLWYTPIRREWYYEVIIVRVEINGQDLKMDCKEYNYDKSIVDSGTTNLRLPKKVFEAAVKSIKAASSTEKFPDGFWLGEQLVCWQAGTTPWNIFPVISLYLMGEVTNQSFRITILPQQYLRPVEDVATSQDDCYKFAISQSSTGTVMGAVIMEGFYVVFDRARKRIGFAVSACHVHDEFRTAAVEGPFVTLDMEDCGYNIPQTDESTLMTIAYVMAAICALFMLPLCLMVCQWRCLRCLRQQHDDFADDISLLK

Row | SMILES | IC50 [1] | IC50 [2] | IC50 [3] | Aβ42 (% Ctrl)_Mean [4, 6] | melting point | Aβtotal (% Ctrl)_Mean [5, 6] | Aβ42 (% Ctrl)_Mean [4, 7] | Aβtotal (% Ctrl)_Mean [5, 7]
1 | C[C@]1(c2cc(NC(=O)c3ccc(C#N)cn3)ccc2F)N=C(N)COC1C(F)F (single isomer, unassigned) [Compound 7, N-{3-[(2R*,3R)-5-Amino-2-(difluoromethyl)-3-methyl-3,6-dihydro-2H-1,4-oxazin-3-yl]-4-fluorophenyl}-5-cyanopyridine-2-carboxamide] | 3.09 nM | 53.7 nM | 3.47 nM | 53 % Ctrl | 230.9 °C | 55 % Ctrl | – | –
2 | C[C@]1(c2cc(-c3cncnc3)ccc2F)N=C(N)COC1C(F)F (single isomer, unassigned) [Compound 4, (5R,6R*)-6-(Difluoromethyl)-5-(2-fluoro-5-pyrimidin-5-ylphenyl)-5-methyl-5,6-dihydro-2H-1,4-oxazin-3-amine] | 129 nM | 427 nM | 129 nM | – | – | – | – | –
3 | C[C@]1(c2cc(NC(=O)c3ccc(F)cn3)ccc2F)N=C(N)COC1C(F)F (single isomer, unassigned) [Compound 2, N-{3-[(2R*,3R)-5-Amino-2-(difluoromethyl)-3-methyl-3,6-dihydro-2H-1,4-oxazin-3-yl]-4-fluorophenyl}-5-fluoropyridine-2-carboxamide] | 8.51 nM | 35.5 nM | 8.51 nM | – | 205.7 °C | – | 91 % Ctrl | 96 % Ctrl
4 | COc1cnc(C(=O)Nc2ccc(F)c([C@@]3(C)N=C(N)COC3C(F)F)c2)cn1 (single isomer, unassigned) [Compound 1, N-{3-[(2R*,3R)-5-Amino-2-(difluoromethyl)-3-methyl-3,6-dihydro-2H-1,4-oxazin-3-yl]-4-fluorophenyl}-5-methoxypyrazine-2-carboxamide] | 4.27 nM | 35.5 nM | 4.17 nM | – | – | – | 62 % Ctrl | 59 % Ctrl
5 | CCC1(c2cc(NC(=O)c3cnc(OC)cn3)ccc2F)N=C(N)COC1C(F)F (racemic) [Compound 3, cis-rac-N-{3-[5-Amino-2-(difluoromethyl)-3-ethyl-3,6-dihydro-2H-1,4-oxazin-3-yl]-4-fluorophenyl}-5-methoxypyrazine-2-carboxamide] | 3.72 nM | 63.1 nM | 4.17 nM | – | – | – | – | –
6 | CC1(c2cc(NC(=O)c3ccc(Cl)cn3)ccc2F)N=C(N)COC1C(F)F (single isomer, unassigned) [Compound 6, N-{3-[(2R*3R)-5-Amino-2-(difluoromethyl)-3-methyl-3,6-dihydro-2H-1,4-oxazin-3-yl]-4-fluorophenyl}-5-chloropyridine-2-carboxamide] | 3.39 nM | – | 3.31 nM | – | – | – | – | –
7 | C[C@]1(c2cccc(-c3cncnc3)c2)N=C(N)COC1C(F)F (single isomer, unassigned) [Compound 5, (5R,6R*)-6-(Difluoromethyl)-5-methyl-5-(3-pyrimidin-5-ylphenyl)-5,6-dihydro-2H-1,4-oxazin-3-amine] | 117 nM | 457 nM | 117 nM | – | – | – | – | –
